Where a name gives a salt, the structure may show the parent alone.

In this experiment the target is T1, DPP-IV from porcine kidney (Sus scrofa, UniProt P22411).
T1 construct: DPP-IV from porcine kidney (Sigma Chemical Co, Munich DE); purchased Sigma Chemical Co, Munich DE; host or cells: porcine kidney (tissue-derived)
T1 sequence (P22411 whole entry): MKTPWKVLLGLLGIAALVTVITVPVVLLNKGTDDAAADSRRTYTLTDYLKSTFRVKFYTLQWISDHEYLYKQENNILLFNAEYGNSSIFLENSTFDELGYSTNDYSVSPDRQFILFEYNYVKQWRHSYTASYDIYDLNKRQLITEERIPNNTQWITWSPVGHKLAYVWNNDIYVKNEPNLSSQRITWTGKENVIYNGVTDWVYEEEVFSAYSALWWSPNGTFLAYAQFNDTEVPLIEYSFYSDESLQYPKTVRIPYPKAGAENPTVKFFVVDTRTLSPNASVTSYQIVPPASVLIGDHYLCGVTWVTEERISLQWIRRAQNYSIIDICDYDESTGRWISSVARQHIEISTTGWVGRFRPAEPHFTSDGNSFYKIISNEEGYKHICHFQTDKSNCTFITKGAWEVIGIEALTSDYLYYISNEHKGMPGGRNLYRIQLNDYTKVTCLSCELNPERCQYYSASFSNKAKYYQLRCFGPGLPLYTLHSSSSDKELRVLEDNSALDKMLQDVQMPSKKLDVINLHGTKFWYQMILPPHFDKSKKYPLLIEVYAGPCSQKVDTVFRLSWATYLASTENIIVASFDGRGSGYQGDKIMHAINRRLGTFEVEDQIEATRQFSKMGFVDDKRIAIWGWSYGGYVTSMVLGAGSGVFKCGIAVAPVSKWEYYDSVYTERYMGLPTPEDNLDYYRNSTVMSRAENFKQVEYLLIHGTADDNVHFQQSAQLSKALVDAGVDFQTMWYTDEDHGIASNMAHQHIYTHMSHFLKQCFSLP
Description: Measurement of the DPP-IV activity (fluorimetric H-Ala-Pro-AFC conversion). The format is biochemical. The conditions noted are these: substrate H-Ala-Pro-AFC 15 μM, DPP-IV 1 mU/ml, Tris/HCl pH 7.4, room temperature. The protocol:
a) Measurement of the DPP-IV Activity:
DPP-IV from porcine kidney (Sigma Chemical Co, Munich DE)
H-Ala-Pro-AFC (Bachem Chemical Co, Weil am Rhein DE)
Dipeptidyl peptidase-IV (DPP-IV) (1 mU/ml, final concentration)
H-Ala-Pro-AFC (15 μM, final concentration) in Tris/HCl (40 mM, pH 7.4), total volume 0.2 ml
The reaction was carried out at room temperature for various times (typically 10 min) and stopped at the end of the reaction by adding 20 μl of ZnCl2(1M). The H-Ala-Pro-AFC conversion was determined fluorimetrically by measuring the emission at 535 nm after excitation at 405 nm. When inhibitors were added, the added buffer volume was adapted so that a total volume of 200 μl was maintained for the assay mixture.
IC50 values for inhibitors were determined by varying the inhibitor concentrations with the stated substrate concentration of 15 μM. Ki and Km values were found by appropriate variation of substrate concentration and inhibitor concentration as described (Dixon, M. and Webb, E. C.(1979) Enzymes, third edition, pp. 47-206, Academic Press). The values for Km, IC50 and Ki were calculated using a commercially available software package (Leatherbarrow, R. J. (1992) GraFit Version 3.0, Erithacus Software Ltd. Staines, U.K.).
Usually IC50 stands for the point on the concentration scale where inhibition reaches its midpoint. Turning to `CC(C)=CCn1c(SC2(CN)CCCC2)nc2c1c(=O)n(CC(=O)c1ccccc1)c(=O)n2C` [Example 64, 8-(1-Aminomethylcyclopentylsulfanyl)-3-methyl-7-(3-methylbut-2-enyl)-1-(2-oxo-2-phenylethyl)-3,7-dihydropurine-2,6-dione trifluoroacetate], the IC50 came out at 7 nM.
With `CC(C)=CCn1c(SC(C)(C)CN)nc2c1c(=O)[nH]c(=O)n2C` [Example 5, 8-(2-Amino-1,1-dimethylethylsulfanyl)-3-methyl-7-(3-methylbut-2-enyl)-3,7-dihydropurine-2,6-dione], the IC50 came to 84 nM.
For `CC(C)=CCn1c(SC(C)(C)CN)nc2c1c(=O)n(CC(=O)c1ccccc1Cl)c(=O)n2C` [Example 42, 8-(2-Amino-1,1-dimethylethylsulfanyl)-1-[2-(2-chlorophenyl)-2-oxoethyl]-3-methyl-7-(3-methylbut-2-enyl)-3,7-dihydropurine-2,6-dione] the value was 16 nM; for `CC(C)=CCn1c(SC(C)(C)CN)nc2c1c(=O)n(Cc1cc(C)on1)c(=O)n2C` [Example 21, 8-(2-Amino-1,1-dimethylethylsulfanyl)-3-methyl-7-(3-methylbut-2-enyl)-1-(5-methylisoxazol-3-ylmethyl)-3,7-dihydropurine-2,6-dione hydrochloride], 170 nM; for `CC(C)=CCn1c(SC(C)(C)CN)nc2c1c(=O)n(CC(=O)c1ccccc1)c(=O)n2C1CC1` [Example 24, 8-(2-Amino-1,1-dimethylethylsulfanyl)-3-cyclopropyl-7-(3-methylbut-2-enyl) -1-(2-oxo-2-phenylethyl)-3,7-dihydropurine-2,6-dione], 9.4 nM.
For `CC(C)=CCn1c(SC(C)(C)CN)nc2c1c(=O)n(Cc1nnc(C3CC3)s1)c(=O)n2C` [Example 12, 8-(2-Amino-1,1-dimethylethylsulfanyl)-1-(5-cyclopropyl-[1,3,4]thiadiazol-2-ylmethyl)-3-methyl-7-(3-methylbut-2-enyl)-3,7-dihydropurine-2,6-dione] the value was 90 nM; for `CC(C)=CCn1c(SC(C)(C)CN)nc2c1c(=O)n(CC(=O)c1cccc(Cl)c1)c(=O)n2C` [Example 43, 8-(2-Amino-1,1-dimethylethylsulfanyl)-1-[2-(3-chlorophenyl)-2-oxoethyl]-3-methyl-7-(3-methylbut-2-enyl)-3,7-dihydropurine-2,6-dione], 30 nM.
The compound `CC(C)=CCn1c(SC(C)(C)CN)nc2c1c(=O)n(CC(=O)c1ccccc1)c(=O)n2CC(F)(F)F` [Example 36, 8-(2-Amino-1,1-dimethylethylsulfanyl)-7-(3-methylbut-2-enyl)-1-(2-oxo-2-phenylethyl)-3-(2,2,2-trifluoroethyl)-3,7-dihydropurine-2,6-dione] came in with an IC50 of 21 nM.
In turn, `CC#CCn1c(SC(C)(C)CN)nc2c1c(=O)n(CC(=O)c1ccccc1)c(=O)n2C` [Example 26, 8-(2-Amino-1,1-dimethylethylsulfanyl)-7-but-2-ynyl-3-methyl-1-(2-oxo-2-phenylethyl)-3,7-dihydropurine-2,6-dione] came in with an IC50 of 27 nM.
`CCn1c(=O)n(CC(=O)c2ccccc2)c(=O)c2c1nc(SC(C)(C)CN)n2CC=C(C)C` [Example 23, 8-(2-Amino-1,1-dimethylethylsulfanyl)-3-ethyl-7-(3-methylbut-2-enyl)-1-(2-oxo-2-phenylethyl)-3,7-dihydropurine-2,6-dione] showed an IC50 of 4.5 nM.
For `CC(C)=CCn1c(SC(C)(C)CN)nc2c1c(=O)n(Cc1nc3cc(F)ccc3s1)c(=O)n2C` [Example 19, 8-(2-Amino-1,1-dimethylethylsulfanyl)-1-(5-fluorobenzothiazol-2-ylmethyl) -3-methyl-7-(3-methylbut-2-enyl)-3,7-dihydropurine-2,6-dione] the value was 24 nM.
The result for `CC(C)=CCn1c(SC(C)(C)CN)nc2c1c(=O)n(CC(=O)c1ccccc1)c(=O)n2C` [Example 1, 8-(2-Amino-1,1-dimethylethylsulfanyl)-3-methyl-7-(3-methylbut-2-enyl)-1-(2-oxo-2-phenylethyl)-3,7-dihydropurine-2,6-dione] reads 1.7 nM.
As for `CC(C)=CCn1c(SCC(C)(C)N)nc2c1c(=O)n(CC(=O)c1ccccc1)c(=O)n2C` [Example 10, 8-(2-Amino-2-methylpropylsulfanyl)-3-methyl-7-(3-methylbut-2-enyl)-1-(2-oxo-2-phenylethyl)-3,7-dihydropurine-2,6-dione], inhibition was half-maximal at 120 nM (IC50).
For `CC(C)=CCn1c(SCCN)nc2c1c(=O)n(CC(=O)c1ccccc1)c(=O)n2C` [Example 3, 8-(2-Aminoethylsulfanyl)-3-methyl-7-(3-methylbut-2-enyl)-1-(2-oxo-2-phenylethyl)-3,7-dihydropurine-2,6-dione] the value was 72 nM; for `Cn1c(=O)n(CC(=O)c2ccccc2)c(=O)c2c1nc(SC1(CN)CCCC1)n2Cc1ccccc1` [Example 63, 8-(1-Aminomethylcyclopentylsulfanyl)-7-benzyl-3-methyl-1-(2-oxo-2-phenyl-ethyl)-3,7-dihydropurine-2,6-dione trifluoroacetate], 14 nM; for `CC(C)=CCn1c(SC(C)(C)CN)nc2c1c(=O)n(CCc1ccccc1)c(=O)n2C1CC1` [Example 25, 8-(2-Amino-1,1-dimethylethylsulfanyl)-3-cyclopropyl-7-(3-methylbut-2-enyl) -1-phenethyl-3,7-dihydropurine-2,6-dione], 48 nM.

These data come from patent US8236810B2, “Substituted 8-aminoalkylthioxanthines, and their use as inhibitors of dipeptidyl peptidase IV” (Sanofi-Aventis Deutschland GmbH, priority 2004, dated 2012).
